# Like-named read-outs stand apart in the source and are kept apart here.
# What was measured:
# [1] = system: Leishmania amazonensis promastigote forms; assay: Leishmanicidal MTT assay on promastigote forms; type: cell-based; settings: for IC50: Leishmania amazonensis, read-out: L. amazonensis IC50
# [2] = Macrophages in vitro cytotoxic assay (MTT); settings: mouse, J774A.1 macrophage cells
# in vitro = settings: mouse
# [3] = promastigote forms, 48 h treatment, MTT
Structure (SMILES),"IC50 [1, 3]",SI (Selectivity Index = CC50 drug/IC50 drug) ([1]; CC50 J774 macrophages / IC50 L. amazonensis promastigotes),CC50 at 48 h [2],CC50 (in vitro),SI (Selectivity Index = CC50 drug/IC50 drug) [1],IC50 ([1]; 48 h)
"C[C@@H]1[C@H](O)[C@@H](C)/C=C/C=C/C=C/C=C/C=C/C=C/C=C/[C@H](O[C@@H]2O[C@H](C)[C@@H](O)[C@H](N)[C@@H]2O)C[C@@H]2O[C@](O)(C[C@@H](O)C[C@@H](O)[C@H](O)CC[C@@H](O)C[C@@H](O)CC(=O)O[C@H]1C)C[C@H](O)[C@H]2C(=O)O [Amphotericin B, reference compound]",0.2 µg/mL,–,–,–,–,–
COc1ccc2c(c1O)[C@@H]1Cc3cc4c(cc3CN1CC2)OCO4 [Compound 1],0.18 µg/mL,284.55,51.2 µg/mL,–,–,–
COc1cc2c(cc1OC)CN1CCc3ccc(OC)c(O)c3[C@@H]1C2 [Compound 2],> 1000 µg/mL,–,96.6 µg/mL,–,–,–
"CO[C@H]1C=CC2=CCN3CCc4cc5c(cc4[C@]23C1)OCO5 [Compound 3, erythraline]",–,–,–,69.3 µg/mL,1.06,65.3 µg/mL
"COC1C=CC2=CC(=O)N3CCc4cc5c(cc4C23C1)OCO5 (stereo not drawn) [Compound 4, 8-oxoerythraline]",> 1000 µg/mL,–,–,> 1000 µg/mL,–,–
"COC1C=CC2=CC(=O)N3C=Cc4cc5c(cc4C23C1)OCO5 (stereo not drawn) [Compound 6, Crystamidine]",71.5 µg/mL,–,–,59 µg/mL,0.82,–
"COC1C=CC2=CCN3CC(O)c4cc5c(cc4C23C1)OCO5 (stereo not drawn) [Compound 7, Erythrinine]",–,–,–,60 µg/mL,1.52,39.5 µg/mL
"COc1cc2c(cc1O)[C@]13C[C@@H](OC)C=CC1=CCN3CC2 [Compound 8, Erysovine]",–,–,–,> 1000 µg/mL,–,> 1000 µg/mL
"COc1cc2c(cc1OC)C13CC(OC)C(=O)C=C1CCN3CC2 (stereo not drawn) [Compound 9, Erythratidinone]",–,–,–,> 1000 µg/mL,–,> 1000 µg/mL

# From publication PMC6271856, “Leishmanicidal Evaluation of Tetrahydroprotoberberine and Spirocyclic Erythrina-Alkaloids” (Molecules, 2014)
